In this experiment the target is Non-receptor tyrosine-protein kinase TYK2 (Homo sapiens, UniProt P29597). Kind of experiment: Reactions were incubated at 22° C. in 384-well polypropylene microtiter plates for 30 minutes and then stopped by addition of 25 μL of an EDTA containing solution (100 mM Hepes pH 7.2, 0.015% Brij-35, 150 mM EDTA), resulting in a final EDTA concentration of 50 mM. Ki values were then determined using the Morrison tight binding model. Morrison, J. F., Biochim. Biophys. Acta. 185:269-296 (1969); William, J. W. and Morrison, J. F., Meth. Enzymol., 63:437-467 (1979).
Non-receptor tyrosine-protein kinase TYK2, sequence (P29597 whole entry): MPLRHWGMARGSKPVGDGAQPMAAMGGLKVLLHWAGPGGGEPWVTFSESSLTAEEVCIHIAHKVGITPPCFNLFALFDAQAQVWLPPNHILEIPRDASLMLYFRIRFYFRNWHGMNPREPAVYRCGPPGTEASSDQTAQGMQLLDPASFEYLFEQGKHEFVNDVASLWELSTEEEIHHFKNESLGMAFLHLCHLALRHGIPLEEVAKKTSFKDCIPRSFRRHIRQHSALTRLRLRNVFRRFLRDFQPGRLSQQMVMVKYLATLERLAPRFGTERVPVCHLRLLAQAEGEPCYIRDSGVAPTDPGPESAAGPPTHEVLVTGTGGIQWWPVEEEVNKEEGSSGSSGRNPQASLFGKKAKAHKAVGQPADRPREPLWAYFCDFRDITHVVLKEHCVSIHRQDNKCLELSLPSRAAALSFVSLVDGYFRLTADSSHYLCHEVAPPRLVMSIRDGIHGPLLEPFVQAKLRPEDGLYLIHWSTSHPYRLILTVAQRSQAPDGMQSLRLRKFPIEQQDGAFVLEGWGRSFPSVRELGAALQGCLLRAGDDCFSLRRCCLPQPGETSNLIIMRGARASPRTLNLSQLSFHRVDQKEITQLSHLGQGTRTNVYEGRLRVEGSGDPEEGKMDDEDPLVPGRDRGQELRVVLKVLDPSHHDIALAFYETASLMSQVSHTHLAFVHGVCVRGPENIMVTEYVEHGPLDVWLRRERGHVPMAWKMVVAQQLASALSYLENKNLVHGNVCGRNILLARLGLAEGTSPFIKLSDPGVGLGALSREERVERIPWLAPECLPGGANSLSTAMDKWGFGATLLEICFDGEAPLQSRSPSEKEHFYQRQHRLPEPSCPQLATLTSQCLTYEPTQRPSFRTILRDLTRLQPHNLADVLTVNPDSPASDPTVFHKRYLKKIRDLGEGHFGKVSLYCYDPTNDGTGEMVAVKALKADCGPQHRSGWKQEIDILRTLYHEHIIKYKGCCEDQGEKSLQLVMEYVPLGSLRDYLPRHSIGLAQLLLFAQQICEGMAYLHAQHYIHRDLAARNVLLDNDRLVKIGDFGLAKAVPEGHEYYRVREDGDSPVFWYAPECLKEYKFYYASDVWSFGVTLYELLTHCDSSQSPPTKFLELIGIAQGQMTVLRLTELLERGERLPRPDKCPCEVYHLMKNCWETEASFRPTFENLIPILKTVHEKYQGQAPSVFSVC

In turn, `OC1CN(c2cc(Nc3ncnc4nc(-c5c(Cl)cccc5Cl)sc34)ncn2)C1` returned an inhibitory constant (Ki) of 87 nM.
As for `COC(=O)Nc1nccc2nc(-c3c(Cl)cccc3Cl)sc12`, the figure is 1.4 nM.

Values taken from ChEMBL document CHEMBL3638741, “Azabenzothiazole compounds, compositions and methods of use” (2014).
